Results: patent publication US20250049924A1, “Abuse-Deterrent Pharmaceutical Composition with Aversion Properties” (AARDVARK THERAPEUTICS INC., priority 2022, published 2025)

Columns and labels:
[1] = system: bitter taste receptors in the oral cavity, including the tongue; test: volunteer snorting experiment with DA in saline (granules or neat powder); format: in vivo, human
Method: One brave co-inventor attempted to “snort” a formulation of DA in either a granule form having talc as an excipient as DA is provided in clinical trials (Aardvark Therapeutics, Inc phase 1 and 2 studies for obesity) for oral administration in a capsule designed to prevent DA material from exposure to bitter taste receptors in the oral cavity, including the tongue. In a first round of “dose escalation” of a saline having DA in granules starting around […] of DA (wherein a granule weighs about 0.1 mg including the talc based excipients) in the volume of liquid snorted, it took a dose of around 0.1 mg DA (10 granules). The three attempts were 1 granule, 5 granules and lastly 10 granules. […] This sensation peaked around 15-20 min, and lasted about an hour. Was certainly annoying and not pleasant.
In view of the results with a granule formulation of DA, the day before filing this patent application, the co-inventor volunteer tried the snorting experiment again, but this time, using neat DA that was a powder dissolved in saline. Just one “snort” was attempted of 1 mg of DA in saline. It should be noted that the completed clinical trials of DA used a dose of 200 mg of DA taken orally in a capsule that dissolves in the stomach, avoiding mouth exposure. The report from our volunteer indicated: “Just snorted 1.0 mg of ARD-101 [DA] API [active pharmaceutical ingredient] . . . OMG.
So terrible. […] Like with the granules, there is no immediate aversive sensation. Maybe around minute 7-8 after snorting dose, the bitterness became apparent, with peak effect starting around minute 10-15. […] Drinking water almost makes it worse!
It's been over 30 min since the snorting and the bitterness has hardly diminished. If I ate breakfast, I might have vomited already.
A later text read: “It's been almost 6 hours and I still taste it. Bleh.”

[2] = systemic exposure of DA after oral administration (completed clinical trials and preclinical studies)
Excerpt: This is in contrast to a controlled substance, such as an amphetamine, which is known to provide a bolus dose to the brain to provider a “high” experience for the drug abuser. This allows a drug abuser, snorting the disclosed formulation to experience a bolus dose of the controlled substance for a “high” while simultaneously, or shortly thereafter, experience a disgusting, revolting, vomit-inducing, sickening (but not life-threatening) massively unpleasant experience from the aversive agent, such as DA.
DB is commercially available but has not been developed for pharmaceutical use. However, DA has been used as an active pharmaceutical agent as a bitter receptor agonist, not as an aversive, in formulations that avoid oral cavity exposure.

[3] = systemic (intravenous) administration of DA, NOAEL; format: in vivo; settings: systemic administration (i.e., intravenous administration)
rats = test: animal toxicology studies, DA orally by gavage, behaviour; format: in vivo; settings: oral gavage by less skilled technicians
[4] = DA granules in saline, around 0.1 mg DA (10 granules)
[5] = neat DA powder dissolved in saline, 1 mg, one snort

Compound: CC(=O)[O-].CC[N+](CC)(CC(=O)Nc1c(C)cccc1C)Cc1ccccc1 [DA, Denatonium acetate]
- dose of DA that it took for an effect in dose escalation ([1]; DA granules (talc excipient) in saline, snorted, attempts of 1, 5 and 10 granules): about 0.1 mg
- duration of sensation [1, 4]: about an hour
- nausea or vomiting [1, 4]: did not elicit nausea or vomiting
- sensation after snorting [1, 4]: extremely bitter taste in the back of my throat and posterior portion of my tongue
- time of peak of sensation [1, 4]: 15 to 20 min
- time to noticing the bitter taste [1, 4]: ≤ 10 min
- effect compared with the granules ([1]; neat DA 1 mg versus granules snorted before): significantly and measurably more disgusting
- deterrence of snorting, volunteer's judgement ([1]; neat DA powder dissolved in saline, 1 mg): measurable deterrent to snorting
- sensation after snorting [1, 5]: extreme bitterness in the back of the throat and the posterior tongue
- start of peak effect [1, 5]: 10 to 15 min
- time after snorting at which bitterness became apparent [1, 5]: 7 to 8 min
- time after snorting at which it is still tasted [1, 5]: ~6 h
- time since snorting at which bitterness has hardly diminished [1, 5]: over 30 min
- part of the dose administered found systemically ([2]; oral administration): less than 1%
- pharmacokinetics, distribution after oral exposure ([2]; oral exposure): substantially gut restricted
- NOAEL (no adverse effect level) [3]: high
- behavior of the animals on gavage (rats): highly aversive and desperate behavior
